Results reported in patent US20250197374A1, “WEE1 DEGRADING COMPOUNDS AND USES THEREOF” (BRISTOL-MYERS SQUIBB COMPANY, priority 2023, published 2025).

Columns and labels:
Format in all cases: cell-based
WEE1 = biological target: T1, WEE1 (Homo sapiens, UniProt P30291+Q96SW2); experiment: WEE1-ePL degradation assay (293T-LentiX, InCELL Hunter luminescence, 4 hr); settings: for DC50: LentiX-HEK293T cells expressing WEE1-ePL, 4 hr incubation, read-out: 293T-LentiX WEE1-ePL Degradation 4 hr EC50; for 293T-LentiX WEE1-ePL Degradation 4 hr YMin (%): lower limit of fit, % of DMSO control signal remaining
T1 construct: C-terminal ePL-tagged (DiscoverX, Fremont, CA) full-length WEE1 expression construct; expressed in transfected cells; host or cells: LentiX-HEK293T (Invitrogen), lentivirally transduced; the cells also over-express GSPT1-GN
T1 sequence (P30291 whole entry): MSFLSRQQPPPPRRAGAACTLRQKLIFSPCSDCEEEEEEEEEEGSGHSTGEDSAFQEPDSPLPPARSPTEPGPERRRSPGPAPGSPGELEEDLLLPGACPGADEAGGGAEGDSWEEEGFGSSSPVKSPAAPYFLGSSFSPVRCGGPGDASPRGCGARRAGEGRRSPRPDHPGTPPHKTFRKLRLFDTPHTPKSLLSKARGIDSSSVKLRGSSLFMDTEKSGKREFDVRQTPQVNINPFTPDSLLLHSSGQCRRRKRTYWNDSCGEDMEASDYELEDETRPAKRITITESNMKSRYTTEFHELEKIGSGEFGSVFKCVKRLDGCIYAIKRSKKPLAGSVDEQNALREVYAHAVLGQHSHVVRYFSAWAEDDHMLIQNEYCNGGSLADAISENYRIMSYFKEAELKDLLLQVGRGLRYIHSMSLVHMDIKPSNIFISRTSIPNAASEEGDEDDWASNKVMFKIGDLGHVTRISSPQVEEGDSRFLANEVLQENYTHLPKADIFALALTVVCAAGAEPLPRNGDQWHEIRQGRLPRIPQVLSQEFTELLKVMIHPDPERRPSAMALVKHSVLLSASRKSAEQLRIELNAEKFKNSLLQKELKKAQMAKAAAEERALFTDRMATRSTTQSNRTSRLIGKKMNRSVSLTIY
T1 sequence (Q96SW2 whole entry): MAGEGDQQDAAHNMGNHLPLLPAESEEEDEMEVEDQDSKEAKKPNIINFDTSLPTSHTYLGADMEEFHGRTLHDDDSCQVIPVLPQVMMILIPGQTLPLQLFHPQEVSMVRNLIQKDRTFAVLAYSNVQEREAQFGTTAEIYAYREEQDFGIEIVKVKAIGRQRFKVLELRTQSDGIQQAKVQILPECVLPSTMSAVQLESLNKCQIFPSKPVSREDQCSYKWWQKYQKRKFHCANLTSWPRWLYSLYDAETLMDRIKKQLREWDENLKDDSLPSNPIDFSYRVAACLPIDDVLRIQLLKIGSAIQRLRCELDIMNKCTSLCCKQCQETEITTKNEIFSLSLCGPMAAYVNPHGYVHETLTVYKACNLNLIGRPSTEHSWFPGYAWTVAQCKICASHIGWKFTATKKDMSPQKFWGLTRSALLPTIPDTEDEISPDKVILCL
T1 sequence (Q16531 whole entry partner): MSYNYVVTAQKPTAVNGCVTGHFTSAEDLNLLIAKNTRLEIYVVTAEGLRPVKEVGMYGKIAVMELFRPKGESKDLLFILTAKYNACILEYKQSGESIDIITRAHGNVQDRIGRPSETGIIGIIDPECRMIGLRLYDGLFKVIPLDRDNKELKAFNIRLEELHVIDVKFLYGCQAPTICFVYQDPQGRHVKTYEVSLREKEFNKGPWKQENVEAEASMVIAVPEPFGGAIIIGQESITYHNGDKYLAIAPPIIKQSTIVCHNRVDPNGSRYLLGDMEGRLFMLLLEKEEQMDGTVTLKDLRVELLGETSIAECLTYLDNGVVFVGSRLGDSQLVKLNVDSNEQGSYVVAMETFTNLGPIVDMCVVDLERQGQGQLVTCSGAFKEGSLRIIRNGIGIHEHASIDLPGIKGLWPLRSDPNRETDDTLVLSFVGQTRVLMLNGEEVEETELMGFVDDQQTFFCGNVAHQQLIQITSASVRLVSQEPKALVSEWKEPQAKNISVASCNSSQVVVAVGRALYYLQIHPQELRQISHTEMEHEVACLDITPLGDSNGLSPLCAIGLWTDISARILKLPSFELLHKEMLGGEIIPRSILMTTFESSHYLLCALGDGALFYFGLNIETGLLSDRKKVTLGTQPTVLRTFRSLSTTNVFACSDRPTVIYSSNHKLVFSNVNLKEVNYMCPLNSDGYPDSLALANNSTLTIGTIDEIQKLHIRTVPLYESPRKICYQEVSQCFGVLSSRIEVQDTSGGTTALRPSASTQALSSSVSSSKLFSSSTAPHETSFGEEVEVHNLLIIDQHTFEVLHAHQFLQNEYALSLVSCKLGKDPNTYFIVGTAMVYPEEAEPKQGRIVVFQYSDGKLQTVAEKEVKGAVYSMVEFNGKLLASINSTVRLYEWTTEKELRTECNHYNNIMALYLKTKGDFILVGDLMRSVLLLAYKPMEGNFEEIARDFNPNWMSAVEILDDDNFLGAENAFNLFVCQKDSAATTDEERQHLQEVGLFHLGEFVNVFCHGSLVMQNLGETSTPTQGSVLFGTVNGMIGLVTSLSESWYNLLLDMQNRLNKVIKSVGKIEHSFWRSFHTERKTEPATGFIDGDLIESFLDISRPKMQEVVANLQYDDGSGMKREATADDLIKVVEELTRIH
Description: To generate LentiX-WEE1-ePL-GSPT1-ND cells for the WEE1 degradation assay, LentiX-HEK293T (Invitrogen) were tranduced by lentivirus with a C-terminal ePL-tagged (DiscoverX, Fremont, CA) full-length WEE1 expression construct. A separate lentiviral construct was introduced to over-express a mutated form of GSPT1 (NP_002085), termed GSPT1-GN, which contains a G575N mutation and is further truncated in the first 158 amino acids. GSPT1-GN is functional but not degradable by Cereblon. Cells were selected and maintained in complete DMEM media (DMEM, 10% Heat Inactivated FBS, 400 μg/mL Geneticin, and 1 μg/mL puromycin at 37 C and 5% CO2). Cells were passaged every 3-4 days by reseeding 1×10^6 cells in a T150 flask.
Cells were dispensed into 384-well white plates (Corning #3570, NY) that were pre-spotted with compounds using an acoustic dispenser (Echo acoustic transfer system, Beckman Coulter Life Sciences, Carlsbad, CA) as a 10-point dose-response curve with a 3-fold dilution starting at either 1 uM or 10 uM and including a DMSO control. Twenty-five microliters of media containing 2500 cells for LentiX-oeWEE1-ePL was dispensed per well. Assay plates were incubated at 37° C. with 5% CO2 for four hours (WEE1) After incubation, 25 μL of the InCELL Hunter™ Detection Reagent Working Solution (DiscoverX, Fremont, CA) was added to each well and incubated at room temperature for 30 minutes protected from light. After 30 minutes, luminescence was read on a PHERAstar luminometer (Cary, NC).
To determine the half-maximal effective concentration (EC50) values for WEE1-ePL degradation, a four parameter logistic model was used: (Sigmoidal Dose-Response Model) (FIT=(A+((B−A)/1+((C/x)^D)))) where C is the inflection point (EC50), D is the Hill slope, and A and B are the low and high limits of the fit respectively). The lower limit of the fit (value A) is referred to as Ymin. […] The maximum limit constraint, Ymax, is similarly derived using DMSO control. The curves were processed and evaluated using Activity Base (IDBS, Alameda, CA) or using Dotmatics (Boston, MA).

MDA-MB-231 cells = experiment: MDA-MB-231 cell proliferation assay (Cell-Titer-Glo, 120 hr); settings: for EC50: Homo sapiens, MDA-MB-231, 120 h, read-out: MDA-MB 231 Cell Prolif. 120 hr EC50; for MDA-MB 231 Cell Prolif. 120 hr YMin (%): minimal percent of DMSO control observed
Description: (§1) MKN45 cells were obtained from Celgene internal cell banks and cultured in RPMI complete media (RPMI-1640, 1× Penicillin/Streptomycin, 1× glutamine, 1× Sodium Pyruvate, Non-essential Amino Acids, 10% Fetal Bovine serum, all component from Thermo-Fisher). MDA-MB-231 cells were obtained from the ATCC (HTB-26) and cultured in RPMI-1640 and 10% Fetal Bovine serum; MDA-MB-231 cells were expanded and stored as aliquots in liquid nitrogen in Celgene internal cell banks. Compounds were dispensed into 384-well plates using an HP DE300 compound printer in triplicate with 8 compounds on each plate. Compounds were dispensed into 384-well black clear bottom plates (Corning #3764BC) using an EDC acoustic dispenser at BMS. For each compound, a 10-point dose response was printed at half-log dilutions starting at either 1 uM or 10 uM in triplicate for MKN45 cells and in duplicate for MDA-MB-231 cells. The DMSO concentration was kept constant for a final assay concentration of 0.1% per well assuming 50 ul final media volume. Compound plates were sealed and frozen at −20 C until use.
(§2) For each assay batch, compound plates were thawed and allowed to reach room temperature, and cells were seeded at 400 MKN45 cells per well, or 800 MDA-MB-231 cells per well, in 50 ul media listed above for each cell line. After 120 hours of incubation at 37 C and 5% CO2, cells were lysed by addition of 25 μL of Cell-Titer-Glo Reagent (Promega Corporation, Madison, WI), as per manufacturer's instructions, protected from light, shaken for 45 minutes, and total luminescence read by a Perkin Elmer Envision plate reader. Total luminescence signal is linearly correlated with cell number remaining in the well.
(§3) Luminescence data was processed per plate by subtracting reagent-only “blank” well luminescence from all measured values and calculating a percent of DMSO control value for each treatment well. Then, to determine the half-maximal effective concentration (EC50) values for cell growth inhibition, a four parameter logistic model was fit to the data for each DMSO-normalized compound: Sigmoidal Dose-Response Model: (FIT=(A+((B−A)/1+((C/x)^D)))) where C is the inflection point ([…]), D is the Hill slope, and A and B are the low and high limits of the fit respectively. The lower limit of the fit (value A) is referred to as Ymin-calculated. The minimal percent of DMSO control that is observed in the concentrations tested for each compound is labeled as “Ymin-obs”, and was recorded and reported in the tables. Sigmoidal fit curves were processed and evaluated using Activity Base (IDBS, Alameda, CA) or using Dotmatics (Boston, MA). N/A=not available at the present time.

MKN45 cells = experiment: MKN45 cell proliferation assay (Cell-Titer-Glo, 120 hr); settings: for EC50: Homo sapiens, MKN-45, 120 h, read-out: MKN45 Cell Prolif. 120 hr EC50; for MKN45 Cell Prolif. 120 hr YMin (%): minimal percent of DMSO control observed
Description: as §1, §2, §3

SMILES	DC50 (WEE1) [nM]	293T-LentiX WEE1-ePL Degradation 4 hr YMin (%) (WEE1)	EC50 (MDA-MB-231 cells) [nM]	MDA-MB 231 Cell Prolif. 120 hr YMin (%) (MDA-MB-231 cells)	EC50 (MKN45 cells) [nM]	MKN45 Cell Prolif. 120 hr YMin (%) (MKN45 cells)
COC[C@@H]1CN(Cc2cc(F)c3nc(N4CCC(O)CC4)ncc3c2)C[C@H]1Oc1ccc2c(c1)CN([C@H]1CCC(=O)NC1=O)C2=O [Example 63, (3S)-3-(5-{[(3S,4S)-1-{[8-fluoro-2-(4-hydroxypiperidin-1-yl)quinazolin-6-yl]methyl}-4-(methoxymethyl)pyrrolidin-3-yl]oxy}-1-oxo-2,3-dihydro-1H-isoindol-2-yl)piperidine-2,6-dione]	3	29.2	42	22.6	2	9.2
COC[C@@H]1CN(Cc2ccc3ccc(N4CCOCC4)nc3c2)C[C@H]1Oc1ccc2c(c1)CN([C@H]1CCC(=O)NC1=O)C2=O [Example 108, (3S)-3-(5-{[(3S,4S)-4-(methoxymethyl)-1-{[2-(morpholin-4-yl)quinolin-7-yl]methyl}pyrrolidin-3-yl]oxy}-1-oxo-2,3-dihydro-1H-isoindol-2-yl)piperidine-2,6-dione]	8	61.2	3100	82.8	340	89.6
COC[C@@H]1CN(Cc2ccc3ccc(N4CCOCC4)nc3c2F)C[C@H]1Oc1ccc2c(c1)CN([C@H]1CCC(=O)NC1=O)C2=O [Example 105, (3S)-3-(5-{[(3S,4S)-1-{[8-fluoro-2-(morpholin-4-yl)quinolin-7-yl]methyl}-4-(methoxymethyl)pyrrolidin-3-yl]oxy}-1-oxo-2,3-dihydro-1H-isoindol-2-yl)piperidine-2,6-dione]	1	40.7	234	91.5	87	83.4
O=C1CCC(N2C(=O)c3ccc(O[C@H]4CCN(Cc5cc(F)c6nc(C7CCOCC7)ccc6c5)C4)cc3C2=O)C(=O)N1 (single isomer, unassigned) [Example 11, 2-((S*)-2,6-dioxopiperidin-3-yl)-5-(((S)-1-((8-fluoro-2-(tetrahydro-2H-pyran-4-yl)quinolin-6-yl)methyl)pyrrolidin-3-yl)oxy)isoindoline-1,3-dione]	4	30.4	525	53.2	33	12.1
COC[C@@H]1CN(Cc2cc(F)c3nc(C4CCC(C(C)(C)O)CC4)ncc3c2)C[C@H]1Oc1ccc2c(c1)CN([C@H]1CCC(=O)NC1=O)C2=O (relative stereo) [Example 111, rel-(S)-3-(5-(((3S,4S)-1-((8-fluoro-2-(4-(2-hydroxypropan-2-yl)cyclohexyl)quinazolin-6-yl)methyl)-4-(methoxymethyl)pyrrolidin-3-yl)oxy)-1-oxoisoindolin-2-yl)piperidine-2,6-dione]	1	27.1	26	16.4	1	7.8
COC[C@@H]1CN(Cc2ccc3nc(C4CCOC(C)(C)C4)ccc3c2)C[C@H]1Oc1ccc2c(c1)CN([C@H]1CCC(=O)NC1=O)C2=O (stereo partly drawn) [Example 84, (3S)-3-(5-{[(3S,4S)-1-{[2-(2,2-dimethyloxan-4-yl)quinolin-6-yl]methyl}-4-(methoxymethyl)pyrrolidin-3-yl]oxy}-1-oxo-2,3-dihydro-1H-isoindol-2-yl)piperidine-2,6-dione]	–	30.8	83	21.0	1	10.5
COC[C@@H]1CN(Cc2cc(F)c3nc(C4CCCN4C)ncc3c2)C[C@H]1Oc1ccc2c(c1)CN([C@H]1CCC(=O)NC1=O)C2=O (relative stereo) [Example 77, rel-(3S)-3-(5-{[(3S,4S)-1-{[8-fluoro-2-(1-methylpyrrolidin-2-yl)quinazolin-6-yl]methyl}-4-(methoxymethyl)pyrrolidin-3-yl]oxy}-1-oxo-2,3-dihydro-1H-isoindol-2-yl)piperidine-2,6-dione]	23	25.5	332	80.1	43	13.1
COC[C@@H]1CN(Cc2cc(F)c3nc(C4CN(C(C)=O)C4)ncc3c2)C[C@H]1Oc1ccc2c(c1)CN([C@H]1CCC(=O)NC1=O)C2=O [Example 45, (3S)-3-(5-{[(3S,4S)-1-{[2-(1-acetylazetidin-3-yl)-8-fluoroquinazolin-6-yl]methyl}-4-(methoxymethyl)pyrrolidin-3-yl]oxy}-1-oxo-2,3-dihydro-1H-isoindol-2-yl)piperidine-2,6-dione]	53	31.5	278	52.6	35	13.4
COC[C@@H]1CN(Cc2cnc3nc(C4CCOCC4)ncc3c2)C[C@H]1Oc1ccc2c(c1)CN([C@H]1CCC(=O)NC1=O)C2=O [Example 134, (3S)-3-(5-{[(3S,4S)-4-(methoxymethyl)-1-{[2-(oxan-4-yl)pyrido[2,3-d]pyrimidin-6-yl]methyl}pyrrolidin-3-yl]oxy}-1-oxo-2,3-dihydro-1H-isoindol-2-yl)piperidine-2,6-dione]	37	32.0	1420	75.6	108	12.9
COC[C@@H]1CN(Cc2cc(F)c3nc(C4(O)CCOCC4)ncc3c2)C[C@H]1Oc1ccc2c(c1)CN([C@H]1CCC(=O)NC1=O)C2=O [Example 62, (3S)-3-(5-{[(3S,4S)-1-{[8-fluoro-2-(4-hydroxyoxan-4-yl)quinazolin-6-yl]methyl}-4-(methoxymethyl)pyrrolidin-3-yl]oxy}-1-oxo-2,3-dihydro-1H-isoindol-2-yl)piperidine-2,6-dione]	4	31.6	100	33.0	7	11.9
